Test results published in paper PMC7293822 (ACS chemical biology, 2018).
Numbered stars: 1 amine (or outer) side, 2 acyl side, 3 side chain; on linkers, the order of the positions; unused ones are H or OH. Ends that are not written are not given here. Peptide text beside a SMILES is read from it. * marks the point of attachment. Glutaryl = O=C(CCCC(=O)[*:2])[*:1]; AMC = Cc1cc(=O)oc2cc(N*)ccc12

Tests used:
human aminopeptidase B = human aminopeptidase B (Homo sapiens, UniProt Q9H4A4); experiment: Fluorescent protease assay with AMC substrates, aminopeptidase B; type: biochemical; conditions: 2 nM human aminopeptidase B, 50 μM substrate, 30 min, D-PBS, 2 mM DTT
Sequence of human aminopeptidase B (Q9H4A4 whole entry): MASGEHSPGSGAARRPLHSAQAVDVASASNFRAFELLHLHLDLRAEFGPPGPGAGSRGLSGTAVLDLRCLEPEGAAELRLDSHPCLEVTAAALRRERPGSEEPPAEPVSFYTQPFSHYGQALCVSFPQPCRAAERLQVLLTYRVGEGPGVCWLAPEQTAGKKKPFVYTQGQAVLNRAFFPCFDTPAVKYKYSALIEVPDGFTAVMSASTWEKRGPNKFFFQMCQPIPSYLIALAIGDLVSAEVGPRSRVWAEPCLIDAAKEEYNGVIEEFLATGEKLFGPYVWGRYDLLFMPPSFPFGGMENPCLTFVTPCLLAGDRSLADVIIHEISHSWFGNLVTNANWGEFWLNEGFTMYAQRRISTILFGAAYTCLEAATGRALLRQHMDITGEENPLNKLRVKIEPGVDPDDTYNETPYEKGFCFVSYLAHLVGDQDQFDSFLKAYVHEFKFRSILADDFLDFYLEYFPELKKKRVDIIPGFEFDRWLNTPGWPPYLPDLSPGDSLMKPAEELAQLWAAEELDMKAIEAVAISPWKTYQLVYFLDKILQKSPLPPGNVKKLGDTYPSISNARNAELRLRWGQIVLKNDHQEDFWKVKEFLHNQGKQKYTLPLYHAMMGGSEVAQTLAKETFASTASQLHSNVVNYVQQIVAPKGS

Pd_dinase [1] = experiment: Fluorescent protease assay with AMC substrates, Pd_dinase; type: biochemical, Parabacteroidetes distasonis; conditions: 8 nM Pd_dinase, 50 μM substrate, 30 min, D-PBS, 2 mM DTT
bovine trypsin = target: T1, bovine trypsin (Bos taurus, UniProt P00760); experiment: Fluorescent protease assay with AMC substrates, trypsin; type: biochemical; conditions: 100 nM bovine trypsin, 50 μM substrate, 30 min, D-PBS, 2 mM DTT
T1 sequence (P00760 24-246): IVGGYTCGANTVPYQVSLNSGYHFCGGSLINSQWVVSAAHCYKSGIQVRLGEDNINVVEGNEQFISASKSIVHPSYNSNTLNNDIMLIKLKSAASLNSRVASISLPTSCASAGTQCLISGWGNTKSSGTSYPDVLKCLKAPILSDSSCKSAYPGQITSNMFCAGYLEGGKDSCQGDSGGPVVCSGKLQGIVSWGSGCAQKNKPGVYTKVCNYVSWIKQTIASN

Pd_dinase [2] = experiment: Antimicrobial peptide digestion by Pd_dinase, LC-MS/MS; type: in vitro ADME, Parabacteroidetes distasonis
E. coli = conditions: cited from earlier work
Pseudomonas aeruginosa = conditions: cited from earlier work
Staphylococcus aureus = conditions: cited from earlier work
Streptococcus pyogenes = conditions: cited from earlier work
Pd_dinase [3] = experiment: Pd_dinase; conditions: Parabacteroidetes distasonis, up to 30 min
aminopeptidase B = experiment: human aminopeptidase B; conditions: up to 30 min
Pd_dinase [4] = experiment: 10 nM of Pd_dinase incubated with each antimicrobial peptide; conditions: Parabacteroidetes distasonis, up to 1200 min
trypsin = experiment: bovine trypsin; conditions: up to 30 min
Pd_dinase [5] = experiment: Inhibition of Pd_dinase by peptide-AOMK inhibitors; type: biochemical, Parabacteroidetes distasonis; conditions: 50 μM inhibitor, 2 nM Pd_dinase, 50 μM substrate, activity monitored for 4 h

Cc1cc(=O)oc2cc(NC(=O)[C@@H](N)CCCN=C(N)N)ccc12 [Arg-AMC, NH2-arginine-AMC]
cleavage of AMC substrate by aminopeptidase B (human aminopeptidase B): only cleaved | cleavage of AMC substrate by Pd_dinase (Pd_dinase [1]): does not cleave | cleavage of AMC substrate by trypsin (bovine trypsin): failed to hydrolyze

Cc1cc(=O)oc2cc(NC(=O)[C@H](CCCNC(=N)N)NC(=O)CN)ccc12 [Gly-Arg-AMC, NH2-Gly-Arg-AMC] (H-Gly-Arg-{AMC})
cleavage of AMC substrate by Pd_dinase (Pd_dinase [1]): rapidly hydrolyzes

AIGGGLSSVGGGS [KAMP-13]
metabolised at 20 h, 5 μM (Pd_dinase [2]; Parabacteroidetes distasonis, isolated protease Pd dinase (10 nM)): 15.5%

GGLSSVGGGSSTIK [KAMP-14]
bactericidal activity (E. coli): bactericidal | bactericidal activity (Pseudomonas aeruginosa): bactericidal | bactericidal activity (Staphylococcus aureus): bactericidal | degradation by Pd_dinase (Pd_dinase [2]; 10 nM Pd_dinase, 5 μM peptide, 5 to 1200 min, triplicate, LC-MS/MS): degraded into a 12-mer peptide | bactericidal activity (Streptococcus pyogenes): bactericidal

Glutaryl-Gly-Arg-{AMC}
not cleaved (Pd_dinase [3]): does not cleave Glt-Gly-Arg-AMC | not cleaved (aminopeptidase B): aminopeptidase B only cleaved Arg-AMC

Glutaryl-Gly-Arg-{AMC} [Glt-Gly-Arg-AMC]
cleavage of AMC substrate by Pd_dinase (Pd_dinase [1]): does not cleave | rate of cleavage by trypsin relative to Gly-Arg-AMC (bovine trypsin): 80 fold

H-AIGGGLSSVGGGS-OH
cleaved bond (Pd_dinase [4]): Ile-G, minor | fragment found (Pd_dinase [4]): 9-mer peptide

H-Gly-Arg-{AMC}
not cleaved (aminopeptidase B): aminopeptidase B only cleaved Arg-AMC

NH2-arginine-AMC
not cleaved (Pd_dinase [3]): does not cleave Arg-AMC | not cleaved (trypsin): failed to hydrolyze Arg-AMC

NH2-glycine-arginine-AOMK [Gly-Arg-AOMK]
effect on Pd_dinase activity (Pd_dinase [5]): completely inhibited
